# According to ChEMBL document CHEMBL3885861, “Open TG-GATES”:
# Organism: Rattus norvegicus
# Assay: Open TG-GATES - Regimen: Single
# Format: toxicity, organism-based, Sprague-Dawley
# Design: regimen Single, gender Male, age 6 weeks
# Conditions: in vivo, po, 0 mg/kg, route gavage, dose level Control; for APTT / Bas / Eos / Fbg / Hb / Ht / Lym / MCH / MCHC / MCV / Mono / Neu / PT / Plat / RBC / Ret / WBC: tissue Blood; for KIDNEY_L / KIDNEY_R / KIDNEY_TOTAL: tissue Kidney; for LIVER: tissue Liver; for A/G / ALP / ALT / AST / BUN / CRE / Ca / Cl / DBIL / GLC / IP / K / LDH / Na / PL / RALB / TBIL / TC / TG / TP / gamma-GTP: tissue Plasma
smiles,measurement,setting,value
CN(C/C=C/C#CC(C)(C)C)Cc1cccc2ccccc12 [TERBINAFINE],TERMINAL_BW,3 h,225.4 g
same,APTT,3 h,18.8 s
same,Bas,3 h,0.6%
same,Eos,3 h,0.8%
same,Fbg,3 h,226 mg/dL
same,Hb,3 h,13.2 g/dL
same,Ht,3 h,39.2%
same,Lym,3 h,81.8%
same,MCH,3 h,21.8 pg
same,MCHC,3 h,33.7%
same,MCV,3 h,64.7 fL
same,Mono,3 h,2.4%
same,Neu,3 h,13.6%
same,PT,3 h,12.1 s
same,Plat,3 h,121.7 x10_4/uL
same,RBC,3 h,606.2 x10_4/ul
same,Ret,3 h,7.5%
same,WBC,3 h,116.5 x10_2/uL
same,KIDNEY_L,3 h,1.1 g
same,KIDNEY_R,3 h,1 g
same,KIDNEY_TOTAL,3 h,2.1 g
same,LIVER,3 h,10.9 g
same,A/G,3 h,1.7
same,ALP,3 h,1027 IU/L
same,ALT,3 h,40.4 IU/L
same,AST,3 h,72.4 IU/L
same,BUN,3 h,12 mg/dL
same,CRE,3 h,0.4 mg/dL
same,Ca,3 h,10.8 mg/dL
same,Cl,3 h,101.8 meq/L
same,DBIL,3 h,0.074 mg/dL
same,GLC,3 h,202.2 mg/dL
same,IP,3 h,9 mg/dL
same,K,3 h,3.7 meq/L
same,LDH,3 h,154.4 IU/L
same,Na,3 h,140.8 meq/L
same,PL,3 h,151.8 mg/dL
same,RALB,3 h,3.4 g/dL
same,TBIL,3 h,0.1 mg/dL
same,TC,3 h,85.4 mg/dL
same,TG,3 h,68.4 mg/dL
same,TP,3 h,5.5 g/dL
same,gamma-GTP,3 h,1 IU/L
same,TERMINAL_BW,6 h,222.8 g
same,APTT,6 h,19 s
same,Bas,6 h,0.6%
same,Eos,6 h,0.8%
same,Fbg,6 h,229.4 mg/dL
same,Hb,6 h,13.7 g/dL
same,Ht,6 h,40.5%
same,Lym,6 h,72.6%
same,MCH,6 h,21.1 pg
same,MCHC,6 h,33.8%
same,MCV,6 h,62.3 fL
same,Mono,6 h,3.2%
same,Neu,6 h,22.4%
same,PT,6 h,12 s
same,Plat,6 h,132.2 x10_4/uL
same,RBC,6 h,650.8 x10_4/ul
same,Ret,6 h,6.6%
same,WBC,6 h,113 x10_2/uL
same,KIDNEY_L,6 h,1 g
same,KIDNEY_R,6 h,1 g
same,KIDNEY_TOTAL,6 h,2 g
same,LIVER,6 h,9.9 g
same,A/G,6 h,1.7
same,ALP,6 h,967.6 IU/L
same,ALT,6 h,34.8 IU/L
same,AST,6 h,69.6 IU/L
same,BUN,6 h,10.6 mg/dL
same,CRE,6 h,0.4 mg/dL
same,Ca,6 h,10.8 mg/dL
same,Cl,6 h,102.8 meq/L
same,DBIL,6 h,0.074 mg/dL
same,GLC,6 h,197.2 mg/dL
same,IP,6 h,8.8 mg/dL
same,K,6 h,3.8 meq/L
same,LDH,6 h,147.4 IU/L
same,Na,6 h,140.6 meq/L
same,PL,6 h,133.4 mg/dL
same,RALB,6 h,3.5 g/dL
same,TBIL,6 h,0.1 mg/dL
same,TC,6 h,76.2 mg/dL
same,TG,6 h,59.2 mg/dL
same,TP,6 h,5.5 g/dL
same,gamma-GTP,6 h,1 IU/L
same,TERMINAL_BW,9 h,219.8 g
same,APTT,9 h,18.2 s
same,Bas,9 h,0.6%
same,Eos,9 h,1%
same,Fbg,9 h,229 mg/dL
same,Hb,9 h,13.4 g/dL
same,Ht,9 h,39.8%
same,Lym,9 h,73.8%
same,MCH,9 h,20.9 pg
same,MCHC,9 h,33.5%
same,MCV,9 h,62.5 fL
same,Mono,9 h,1.8%
same,Neu,9 h,22.4%
same,PT,9 h,12.2 s
same,Plat,9 h,119.3 x10_4/uL
same,RBC,9 h,637.4 x10_4/ul
same,Ret,9 h,6.8%
same,WBC,9 h,89.2 x10_2/uL
same,KIDNEY_L,9 h,1 g
same,KIDNEY_R,9 h,1 g
same,KIDNEY_TOTAL,9 h,2 g
same,LIVER,9 h,9.3 g
same,A/G,9 h,1.6
same,ALP,9 h,810.4 IU/L
same,ALT,9 h,31 IU/L
same,AST,9 h,62.8 IU/L
same,BUN,9 h,11.8 mg/dL
same,CRE,9 h,0.4 mg/dL
same,Ca,9 h,10.5 mg/dL
same,Cl,9 h,103.6 meq/L
same,DBIL,9 h,0.066 mg/dL
same,GLC,9 h,204.2 mg/dL
same,IP,9 h,9.8 mg/dL
same,K,9 h,3.9 meq/L
same,LDH,9 h,167.6 IU/L
same,Na,9 h,141.4 meq/L
same,PL,9 h,136.4 mg/dL
same,RALB,9 h,3.4 g/dL
same,TBIL,9 h,0.1 mg/dL
same,TC,9 h,70.2 mg/dL
same,TG,9 h,62 mg/dL
same,TP,9 h,5.6 g/dL
same,gamma-GTP,9 h,1.4 IU/L
same,TERMINAL_BW,24 h,238.7 g
same,APTT,24 h,18.9 s
same,Bas,24 h,0.8%
same,Eos,24 h,1%
same,Fbg,24 h,236.8 mg/dL
same,Hb,24 h,13.2 g/dL
same,Ht,24 h,39.1%
same,Lym,24 h,79.2%
same,MCH,24 h,21.6 pg
same,MCHC,24 h,33.7%
same,MCV,24 h,64.3 fL
same,Mono,24 h,2.8%
same,Neu,24 h,16.4%
same,PT,24 h,11.8 s
same,Plat,24 h,132.1 x10_4/uL
same,RBC,24 h,608.4 x10_4/ul
same,Ret,24 h,6.3%
same,WBC,24 h,97.8 x10_2/uL
same,KIDNEY_L,24 h,1 g
same,KIDNEY_R,24 h,1 g
same,KIDNEY_TOTAL,24 h,2 g
same,LIVER,24 h,11.6 g
same,A/G,24 h,1.6
same,ALP,24 h,986.4 IU/L
same,ALT,24 h,36.4 IU/L
same,AST,24 h,74.4 IU/L
same,BUN,24 h,15.4 mg/dL
same,CRE,24 h,0.4 mg/dL
same,Ca,24 h,10.9 mg/dL
same,Cl,24 h,103.6 meq/L
same,DBIL,24 h,0.1 mg/dL
same,GLC,24 h,196.8 mg/dL
same,IP,24 h,7.4 mg/dL
same,K,24 h,4.2 meq/L
same,LDH,24 h,189.4 IU/L
same,Na,24 h,141.2 meq/L
same,PL,24 h,152 mg/dL
same,RALB,24 h,3.5 g/dL
same,TBIL,24 h,0.2 mg/dL
same,TC,24 h,74.4 mg/dL
same,TG,24 h,107.8 mg/dL
same,TP,24 h,5.7 g/dL
same,gamma-GTP,24 h,1.6 IU/L
